We go through 2 compounds from patent US8067615B2, “Sulphonylpyrroles” (4SC AG, priority 2004, dated 2011).

Structures are written as SMILES. pEC50, pIC50: −log10 of the molar value.

Data set [1] concerns histone H3K23 hyperacetylation in HeLa cervical carcinoma cells. Put plainly: Cellular histone H3 hyperacetylation assay. To be noted: Homo sapiens, 24 h with compound, read-out: Induction of histone H3K23 hyperacetylation EC50. Format: cell-based. From the text: To assess the cellular efficacy of an histone deacetylase inhibitor in vitro, an assay was set up in black clear-bottom 96-well plates and optimized for use on the Cellomics “ArrayScan II” platform for a quantitative calculation of […] acetylation. The protocol uses a polyclonal rabbit antibody, specifically binding to acetylated lysine 23 of human histone H3 on fixed cells with an Alexa Fluor 488 labeled goat anti rabbit-IgG used for counterstaining (Braunger et al. AACR annual conference 2003, Abstract 4556). 5×10^3 HeLa cervical carcinoma cells/well (ATCC CCL-2) in 200 μl Dulbecco's modified Eagle's medium (DMEM) containing 10% fetal calf serum were seeded at day 1 in Packard view plates and incubated for 24 h under standard cell culture conditions. On day 2, 2 μl test compound (100× final concentration) was added and incubation continued for further 24 h. On day 3, the culture medium was discarded and attached cells fixed for 15 min at room temperature by addition of 100 μl fixation buffer (3.7% v:v formaldehyde in phosphate buffered saline/PBS). After discarding the fixation buffer and one wash with PBS, cells were permeabilized at room temperature by addition of 100 μl/well permeabilization buffer (30.8 mM NaCl, 0.54 mM Na2HPO4, 0.31 mM KH2PO4, 5% v:v Triton X-100) for 15 min at room temperature. After discarding the permeabilization buffer and addition of 100 μl/well blocking solution (PBS with 0.05% v:v Tween 20 and 5% w:v milk powder) for 30 min at room temperature, the 1st antibody (anti-K23 histone H3 antibody, Cell Signaling No. 9674) in blocking solution (50 μl/well) was added. After incubation for 1 h at 37° C., the wells were washed 5 times for 5 min at room temperature with wash buffer (PBS with 0.05% v:v Tween 20) before addition of the 2nd antibody (goat-anti-rabbit Alexa Fluor 488; MoBiTec No. A-11008) in blocking solution (50 μl/well). After further incubation for 30 min at 37° C., wells were washed 5 times for 5 min at RT with 100 μl wash buffer at room temperature. Finally, 100 μl/well PBS were added and image analysis performed on the Cellomics “ArrayScan II” platform. For calculation of EC50 values, the nuclear fluorescence in cells treated with and without a reference HDAC inhibitor like SAHA or NVP-LBH-589 were taken as a positive and negative control, respectively. For EC50 determination, the percentage of positive cells was determined and EC50 calculation done from concentration-effect curves by means of non-linear regression.

The test system of data set [2] is HeLa cervical carcinoma cells. In words: Cellular cytotoxicity assay (Alamar Blue / Resazurin). Format: cell-based. To be noted: Homo sapiens, 48 hours incubation. As to the method:
The anti-proliferative activity of the histone deacetylase inhibitory compounds as described herein, was evaluated with the HeLa cervical carcinoma cell line (ATCC CCL2) using the Alamar Blue (Resazurin) cell viability assay (O'Brien et al. Eur J Biochem 267, 5421-5426, 2000). Resazurin is reduced to the fluorescent resorufin by cellular dehydrogenase activity, correlating with viable, proliferating cells. Test compounds were dissolved as 10 mM solutions in dimethylsulfoxide (DMSO) and subsequently diluted in semi-logarithmic steps. HeLa cells were seeded into 96 well flat bottom plates at a density of 3000 cells per well in a volume of […] per well. 24 hours after seeding 1 μl each of the compound dilutions were added into each well of the 96 Well plate. Each compound dilution was tested as quadruplicates. Wells containing untreated control cells were filled with 200 μl DMEM medium containing 0.5% v:v DMSO. The cells were then incubated with the substances for 48 hours at 37° C. in a humidified atmosphere containing 5% carbon dioxide. To determine the viability of the cells, 20 μl of an Resazurin solution (Sigma; 90 mg/l) were added. After 4 hours incubation at 37° C. the fluorescence was measured at an […] of 544 nm and an emission of 590 nm. For the calculation of the cell viability the emission value from untreated cells was set as 100% viability and the emission rates of treated cells were set in relation to the values of untreated cells. Viabilities were expressed as % values. The corresponding IC50 values of the compounds for cytotoxic activity are determined from the concentration-effect curves by means of non-linear regression.

Consider `CN(C)Cc1ccc(S(=O)(=O)n2ccc(/C=C/C(=O)NO)c2)cc1` [Compound 10, (E)-3-[1-(4-Dimethylaminomethyl-benzenesulfonyl)-1H-pyrrol-3-yl]-N-hydroxy-acrylamide], for which the pEC50 (as a rule, −log10 of the EC50, conventionally taken in molar units) in data set [1] was 4.29 to 5.67. The pIC50 (commonly −log10 of the IC50, conventionally taken in molar units) in data set [2] was 5.30 to 7.15.

For `O=C(/C=C/c1ccn(S(=O)(=O)c2ccc(CN3CCOCC3)cc2)c1)NO` [Compound 27, (E)-N-Hydroxy-3-[1-(4-morpholin-4-ylmethyl-benzenesulfonyl)-1H-pyrrol-3-yl]acrylamide], the melting point – broadly, the temperature of the solid-liquid transition – lay in the range of 168 to 170 °C. In addition, the pEC50 in data set [1] was 4.29 to 5.67. The pIC50 in data set [2] was 5.30 to 7.15.
